Measurements published in paper PMC9925432, “Thioquinoline derivatives conjugated to thiosemicarbazide as potent tyrosinase inhibitors with anti-melanogenesis properties” (Scientific Reports, 2023).
Entries after “also recorded” stand apart in the source; their conditions may differ. Read-outs that look alike come from different tables or passages of the source.

What was measured:
[1] = parameters: method as in PMID 33640246; settings: at 8 µM; cited from earlier work
mushroom tyrosinase [2] = settings: cited from earlier work
melanoma cells = tested on: melanoma cells; parameters: method as in PMID 28393917; settings: cited from earlier work
mushroom tyrosinase [3] = assay: Enzyme kinetic study (Lineweaver–Burk plot); type: biochemical
Experimental: The Lineweaver–Burk reciprocal plot was provided by plotting 1/V against 1/[S] at variable concentrations of the substrate L-Dopa (0.25, 0.5, 0.75, and 1 mM) The inhibition constant Ki was achieved by the plot of slopes versus the corresponding concentrations of the compound 10g[24].

[4] = MTT assay for cell viability, A375; type: cell-based; settings: human, A375 cells, 48 h, mean ± S.E.M.
Experimental: (§1) The cytotoxic activity of all derivatives against the HEK 293 cell line and 10g against A375 (at a density of 5 × 10^3 cells/ml) using 3-(4,5-dimethylthiazol-2-yl)-2,5- diphenyltetrazolium bromide (MTT) assay were performed. Cells were grown at 37 °C in the presence of CO2 5% in DMEM (Gibco BRL, Grand Island, NY, USA), 10% fetal bovine serum (FBS, Gibco BRL), and penicillin/streptomycin (100 IU/mL and 100 µg/mL, respectively). Next cells were seeded in a 96-well plate and incubated at 37 ^∘C with derivatives at different concentrations for 48 h. Following the treatment, cells were incubated with MTT (0.5 mg/ml) at 37 ^∘C for 3 h. The MTT-containing medium was then removed, and 100 μl of DMSO was added to each well, mixed thoroughly with a 10 min shake to dissolve formazan crystals. The absorbance of each well was measured at 540 nm[33].

A375 cells = assay: MTT assay for cell viability, A375; type: cell-based; settings: up to 32 μM
Experimental: as §1

[5] = MTT assay for cell viability, HEK 293; type: cell-based; settings: human, HEK 293 cells, 48 h, MTT, mean ± S.E.M.
Experimental: as §1

HEK 293 cell line = assay: MTT assay for cell viability, HEK 293; type: cell-based; settings: HEK 293, 32 µM, 48 h, MTT; mean ± S.E.M.; 32 µM
Experimental: as §1

[6] = target: T1, Mushroom tyrosinase (EC 1.14.18.1) (Agaricus bisporus, UniProt C7FF04); assay: Tyrosinase inhibitory assay (colorimetric, diphenolase activity, L-Dopa); type: biochemical; settings: L-Dopa as substrate; means ± RSD of 3 independent experiments
T1 construct: purchased Sigma Chemical Co
T1 sequence (C7FF04 1-392 limits assumed): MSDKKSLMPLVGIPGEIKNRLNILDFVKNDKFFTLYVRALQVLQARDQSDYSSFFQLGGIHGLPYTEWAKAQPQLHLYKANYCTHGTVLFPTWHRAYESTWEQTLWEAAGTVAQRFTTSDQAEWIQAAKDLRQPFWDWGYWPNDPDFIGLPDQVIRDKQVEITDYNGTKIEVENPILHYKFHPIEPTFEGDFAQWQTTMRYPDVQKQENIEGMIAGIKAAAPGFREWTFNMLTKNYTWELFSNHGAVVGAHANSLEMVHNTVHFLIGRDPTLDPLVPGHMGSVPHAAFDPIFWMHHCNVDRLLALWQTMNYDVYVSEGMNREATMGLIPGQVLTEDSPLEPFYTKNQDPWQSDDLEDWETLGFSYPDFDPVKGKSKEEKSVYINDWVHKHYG
Experimental: Mushroom tyrosinase (EC 1.14.18.1) (Sigma Chemical Co.) was assayed using L-Dopa as the substrate as reported in our previous studies with some modifications[30]–[32]. The enzyme diphenolase activity was monitored spectrophotometrically by observing dopachrome formation at 490 nm. All the test samples were first dissolved in DMSO at 10 mM and diluted to the required concentrations. Initially, in a 96-well microplate, 10 µl of test samples were added to 160 µl of 50 mM phosphate buffer (pH = 6.8) and then 10 µl tyrosinase (500 U mL^−1) was added. After the mixture was pre-incubated at 28 °C for 20 min, 20 µl of L-Dopa solution (7 mM) was added to the mixture. After 10 min incubation absorbance of samples was measured. DMSO without test compounds was used as the control, and kojic acid was used as a positive control. Each assay was conducted as three separate replicates. The inhibitory activity of the tested compounds was expressed as the concentration that inhibited 50% of the enzyme activity (IC50). […]

A375 cell line = assay: Melanin content assay; type: cell-based; settings: A375, 48 h, at tested concentrations, kojic acid positive control
Experimental: The assay was performed according to previously reported procedures. In detail, A375 cells were seeded in six-well plates (2.0 × 10^5 cells/well). After 24 h, the medium was replaced by a fresh one and treated with 10g at different concentrations and the plate was incubated for an extra 48 h. After that cells were washed twice with PBS and harvested using […], then dissolved in 300 μl of 1 N NaOH/10% DMSO buffer and boiled for 2 h at 80 °C to solubilize the melanin. The absorbance of the supernatant was measured at 470 nm in a microplate reader. The obtained results were normalized using total protein content. Kojic acid was used as a positive[30],[34].

tyrosinase = assay: Fluorescence quenching of tyrosinase (Stern–Volmer); type: binding
Experimental: The fluorescent measurements were carried out in each well of the black 96 well plate by adding various concentrations of inhibitor 10g, (Q = 5, 10, 20, 40, and 100 µM) to a constant concentration of tyrosinase (273 IU/mL). Next, phosphate buffer solution (0.05 M, pH = 6.8) was used to bring the capacity of each well to 200 µL. Before measurements, all solutions were properly mixed and allowed to stand for 20 min at 298 K and 304 K. A fluorescence spectrometer (BioTek’s multi-mode plate reader, USA) was used to measure the fluorescence spectra. The bandwidths of excitation and emission were both set at 5 nm, and fluorescence emission spectra were captured spanning the wavelength range of 310–400 nm at an excitation wavelength of 280 nm.
The linear Stern–Volmer Eq. (1) was used to examine the fluorescence quenching:1 F0/F=1+kqτ0Q=1+kSV[Q] where, F and F0 represent the fluorescence intensity in the presence or absence of inhibitors, respectively. The bimolecular quenching constant is denoted by the symbol kq, whereas the average lifespan of a biomolecule without a quencher is denoted by the symbol τ0, and its value is 10^−8 s. [Q] refers to the inhibitor concentration (µM). KSV which is calculated by kq . τ0. is the fluorescence quenching constant.
In order to calculate the apparent binding constant and binding fraction of fluorophore group of tyrosinase accessible to inhibitor 10g, Stern–Volmer Eq. (1) should be modified to Eq. (2):2 LogF0-F/F=log KA+n LogQ
In this equation, KA indicates either the modified apparent binding constant or the Stern–Volmer quenching constant. n represents the fraction of fluorophore accessible to the quencher. The intercept of the curve that is obtained by plotting log (F0-F/F) versus log [Q] is log KA, and the slope of the curve is n. Therefore, the intercept and slope data may be used to calculate the values of KA and n.

## O=c1cc(CSc2nc3ccccc3c(=O)n2Cc2ccccn2)occ1O [C]
[1]
  melanin content: 68.99%

## Oc1cnc2c(O)cccc2c1 [Jineol]
Mushroom tyrosinase [2]; L-Dopa as substrate
  IC50: 50.35 ± 0.05 µM
Mushroom tyrosinase [2]; L-tyrosine as substrate
  IC50: 39.46 ± 0.01 µM
Melanoma cells
  effect on melanin content: reduced melanin content

## NC(=S)N/N=C/c1cc2ccccc2nc1SCC(=O)Nc1ccc(Cl)cc1 [Compound 10g, (E)-2-((3-((2-carbamothioylhydrazono)methyl)quinolin-2-yl)thio)-N-(4-chlorophenyl)acetamide]
Mushroom tyrosinase [3]; 10g 1 µM
  Km: 800 µM
  Vmax: 80.00 mM/min
Mushroom tyrosinase [3]; 10g 10 µM
  Km: 850 µM
  Vmax: 67.57 mM/min
Mushroom tyrosinase [3]; 10g 20 µM
  Km: 850 µM
  Vmax: 50.25 mM/min
Mushroom tyrosinase [3]; 10g 40 µM
  Km: 950 µM
Mushroom tyrosinase [3]; Lineweaver–Burk plot, L-Dopa as substrate
  inhibition pattern (type of inhibition): noncompetitive
[4]; A375, 16 µM
  viability at 48 h, 16 µM: 93.7 ± 2.24%
[4]; A375, 32 µM
  viability at 48 h, 32 µM: 87.5 ± 1.53%
[4]; A375, 64 µM
  viability at 48 h, 64 µM: 61.2 ± 3.91%
A375 cells
  toxicity on A375 cell line: did not show significant toxicity
[5]; HEK 293, 16 µM
  viability at 48 h, 16 µM: 92.7 ± 1.47%
[5]; HEK 293, 32 µM
  viability at 48 h, 32 µM: > 85%
[5]; HEK 293, 64 µM
  viability at 48 h, 64 µM: 72.5 ± 2.41%
HEK 293 cell line
  Cell viability (%): 86.14 ± 2.17%
[6]
  IC50: 25.7 µM
other
  melting point: 185 to 191 °C
A375 cell line
  effect on melanin content: reduced the melanin content; also recorded: significant reduction of melanin content
tyrosinase; 298 K
  KA (binding constant): 71150 L/mol
  Kq (bimolecular quenching constant): 6.69 × 10^12 L⋅mol^–1⋅s^–1
  Ksv (Stern–Volmer constant): 6.69 × 10^4 L.mol^–1
  n (binding sites): 0.9288
tyrosinase; 298 K and 304 K
  n (binding sites): ~1
tyrosinase; 298 K and 304 K, all values
  Kq (bimolecular quenching constant): higher than 2 × 10^10 L⋅mol^−1⋅s^−1
tyrosinase; 304 K
  KA (binding constant): 52200 L/mol
  Kq (bimolecular quenching constant): 5.14 × 10^12 L⋅mol^–1⋅s^–1
  Ksv (Stern–Volmer constant): 5.14 × 10^4 L.mol^–1
  n (binding sites): 1.0604
